Data published in EPA's ToxValDB 9.5 (doi:10.2903/j.efsa.2020.6232).

Experiments:
[1] = tested on: Rattus norvegicus
[2] = tested on: Oncorhynchus mykiss; conditions: acute; duration: 96 hours; mortality
[3] = tested on: Pimephales promelas; conditions: chronic/long-term; duration: 28 days
[4] = tested on: Bibionidae; conditions: chronic/long-term; duration: 23 days; reproduction
[5] = tested on: Colinus virginianus; conditions: acute, oral, mortality
[6] = tested on: Coturnix japonica; conditions: reproduction developmental
[7] = tested on: Apis mellifera; conditions: acute, mortality
[8] = tested on: Hypoaspis aculeifer; conditions: chronic/long-term; reproduction
[9] = tested on: Tagia sp.; conditions: chronic/long-term; reproduction
[10] = tested on: Typhlodromus pyri; assay: LR50; higher = less toxic; conditions: mortality

Cc1ccc(-c2c(Cl)nc(C#N)n2S(=O)(=O)N(C)C)cc1
LD50 ([1]; acute, oral, mortality): > 5000 mg/kg-day
NOAEL ([1]; chronic, duration: 2 years, organ weight): 17 mg/kg-day
NOAEL ([1]; reproduction developmental, body weight): 89 mg/kg-day
NOAEL ([1]; subchronic, duration: 90 days, oral, organ weight): 29.5 mg/kg-day
LC50 [2]: > 0.107 µg/mL
NOEC [3]: 0.09 mg/L
NOEC [4]: 0.0117 mg/L
LD50 ([5]; diet): > 1280 mg/kg-day
LD50 [5]: > 2000 mg/kg-day
NOAEL [6]: 151 mg/kg-day
LD50 ([7]; dermal): 9.52 µg/piece
LD50 ([7]; oral, unspecified): > 31.8 µg/piece
NOEC [8]: 18.7 mg/kg
NOEC [9]: 2 mg/kg
LR50 ([10]; acute, duration: 10 days): 256 g/ha
LR50 ([10]; not reported): 80 g/ha
